≈ marks a conversion by molar mass, not a printed value.
What was measured:
Assay in all cases: MIC determination by NCCLS dilution antimicrobial susceptibility test
Type in all cases: cell-based
[1] = system: enterococcus faecalis 1528 (VRE); details: vanA-type vancomycin resistance
Text: (§1) The antibacterial effects of HKI10311129 can be determined by applying methods well-known to the experts, such as the agar plate diffusion test and the determination of the minimal inhibitory concentration (MIC).
(§2) The antimicrobial characteristics have been tested according to the US laboratory standards—National Committee for Clinical Laboratory Standards, Methods for dilution anti-microbial susceptibility tests for bacteria that grow aerobically, Approved Standard M7-A. NCCLS, Villanova, Pa., 1991).

[2] = system: staphylococcus aureus 134/93 (MRSA); details: multiresistant
Text: as §1, §2

[3] = system: bacillus subtilis ATCC 6633; details: ATCC6633
Text: as §1, §2

[4] = system: staphylococcus aureus SG 511; details: SG511
Text: as §1, §2

Question: How did the MIC [1] turn out when `COC1=CC(=O)c2c(cc3c(c2O)C(=O)C2(OC4CCC(OC5CCC(O)C(C)O5)C(C)O4)C(=O)C(C(N)=O)=C(O)C(OC4CCC(OC5CCC(OC6CCC(OC7CCC(O)C(C)O7)C(C)O6)C(C)O5)C(C)O4)C2C3)C1=O` (stereo not shown) [HKI10311129] was run?
Answer: 0.4 µg/mL (≈ 0.359 µM)

Question: And the MIC [2]?
Answer: 0.8 µg/mL (≈ 0.718 µM)

Question: And the MIC [3]?
Answer: < 0.05 µg/mL

Question: What about the MIC [4] of the same compound?
Answer: 0.8 µg/mL (≈ 0.718 µM)

Source: patent US7557091B2, “HKI10311129, novel antibiotic, method for producing the same and the use thereof” (Leibniz-Institut fuer Naturstoff-Forschung und …, priority 2004, dated 2009)
